According to US10203334B2, “Methods and compositions related to nucleic acid binding assays” (Nubad, LLC, priority 2012, dated 2019):

Assays:
[1] = test system: DNA triplex poly(dA).2poly(dT); assay: Competition dialysis; format: binding
Description: Disclosed is the use of fluorescent aminosugar probes such as F-neo (42a) to probe a variety of nucleic acid targets. Competition dialysis was used as a nucleic acid screening technique to illustrate the binding of F-neo (42a) to different nucleic acid structures.
Competition dialysis studies using a fluorescein-neomycin conjugate (F-neo (42a)). […] Comparative binding of F-neo (42a) to 13 different nucleic acid structures was examined which included single strand nucleic acids [poly(dT), poly(A), poly(U)], duplexes [poly(dA).poly(dT), poly(rA).poly(dT), poly(rA).poly(rU), poly(dA).poly(rU), poly(dG).poly(dC), calf thymus], triplexes [poly(dA).2poly(dT), poly(rA).2poly(rU)], i-motif (polydC) and 16S A-site rRNA (SEQ ID No. 1). The amount of F-neo (42a) bound to each nucleic acid is shown as a bar graph in FIG. 13. Because all nucleic acids are dialyzed simultaneously in the same ligand solution, the amount of bound F-neo (42a) is directly proportional to its affinity for each nucleic acid. […] 200 μL of different nucleic acids (7.5 μM per monomeric unit of each polymer) was dialyzed for 72 h with 400 mL 100 nM ligand in 6 mM Na2HPO4, 2 mM NaH2PO4, 1 mM Na2EDTA, pH 7.0 and various Na+ concentrations as indicated.
F-neo (42a) prefers to bind to 16S A-site rRNA yielding a bound ligand concentration of 85 nM in 100 mM Na^+, 50 nM in 150 mM Na^+, and 15 nM in 200 mM Na^+ is shown in FIG. 15. […]

[2] = test system: A-site RNA oligonucleotide (SEQ ID No. 1); format: physicochemical, E. coli
Procedure: The effect of A-site rRNA oligonucleotide (SEQ ID No. 1) on the absorbance spectra of fluorescein-neomycin at pH 7.1 was recorded in FIG. 7. The absorbance spectra of 3.0 mM fluorescein-neomycin in 20 mM MOPSO, 0.4 mM EDTA, 50 mM NaCl at pH 7.1 with the addition of 0 mM (112), 1.1 mM (114), 2.2 mM (116) or 3.3 mM (118) of A-site oligonucleotide (SEQ ID NO. 1), respectively is shown in FIG. 7A. Absorbance at 490 nm of fluorescein-neomycin:A-site complex as function of pH is show in FIG. 7B, with 3.0 mM fluorescein-neomycin complexed with 3.3 mM A-site oligonucleotide (SEQ ID No. 1) in 20 mM MOPSO, 0.4 mM EDTA, 50 mM NaCl at the indicated pH values.
With increasing pH, fluorescein-neomycin undergoes a transition between mono-anion and di-anion species. Fluorescein-neomycin concentration was 10 μM in 100 mM NaCl, 10 mM SC, 0.5 mM EDTA. As indicated by its absorbance spectra in FIG. 8A, the F-neo transitions from a mono-anion to a di-anion with increasing pH. FIG. 8B compares the absorbance spectra between the mono-anion and di-anion species of fluorescein neomycin. […] The absorbance peak of about 490 nm in FIGS. 8A and 8B is consistent with the phenolate species of fluorescein. The pKa for the equilibrium of the phenol and phenolate forms of F-neo (42a) was measured by evaluating the absorbance spectrum as a function of pH and shown to be 6.84. […] When monitoring the absorption spectrum in the presence of the A-site RNA (SEQ ID No. 1), a reduction in A490 consistent with the change in pKa was observed. This A490 reduction is consistent with a shift in equilibrium towards the protonated non-fluorescent form of fluorescein-neomycin upon binding to A-site. […] This shift in pKa causes a change in the fluorescence intensity of F-neo (42a).
The following equilibrium can be used to explain the probe function: FHNeo+Base=F(−)Neo+BH^+ Eq. (2) where FHNeo represents the protonated form of F-neo (42a). Upon binding to A-site RNA, F(−)Neo is destabilized by the negative potential of the RNA backbone, shifting the equilibrium towards FHNeo. Thus the binding of F-neo (42a) to RNA raises the pKa, making F-neo (42a) a weaker acid.
The local electrostatic potential (Ψ) in the major groove is given by the following Equation 3. Ψ=−[R·T·ln 10/(NA·e)]ΔpKa Eq. (3) Where ΔpKa is the difference between the free Fluorescein-neomycin and the Fluorescein-neomycin in the presence of the electrostatic environment, R is the universal gas constant, T is the absolute temperature in kelvin, NA is the Avogadro constant, and e is the elementary charge. R=8.312 J mol−1K−1, T=298.2K, NA=6.023×10^23 and e=1.602×10^−19; Ψ is expressed in mV. […] Based on this Δpka of 0.86, the electrostatic potential of the microenvironment for the fluorescein moiety in the complex is determined to be −50.9 mV.

[3] = test system: mitochondria ribosomal A-site (SEQ ID NO. 3); assay: Quenching of F-neo by ribosomal A-site mimics, 96-well; format: binding; settings: 0.1 μM RNA to 0.1 μM F-neo (42a); em 535 nm, ex 485 nm; ten wells averaged
Procedure: (§1) Disclosed is an HTS showing the difference in the binding affinity of fluorescene-neomycin (F-neo (42a)) to various synthetic RNA sequence 27 bases long designed to mimic the ribosomal A-site using a 96 well plate format and a fluorescent plate reader. Differences in binding are determined by the differential quenching of F-neo (42a) upon binding to the RNA.
(§2) Following the SOP's established for F-neo (42a) binding to E. coli A-site, each sequence was added at 0.1 μM RNA to 0.1 μM F-neo (42a) using 100 reads/well using a Tecan Genios Pro plate reader in a 96 well Greiner black plate. The emission was measured at wavelength 535 nm, using an excitation wavelength of 485 nm. All experiments were performed in 10 mM hepes (7.0), 50 mM NaCl, and 0.4 mM EDTA.

[4] = test system: E. coli ribosomal A-site (SEQ ID No. 1); assay: as above; format: binding; settings: 0.1 μM RNA to 0.1 μM F-neo (42a); em 535 nm, ex 485 nm; ten wells averaged
Procedure: as §1, §2

[5] = test system: mutant mitochondria ribosomal A-site (SEQ ID NO. 4); assay: as above; format: binding; settings: 0.1 μM RNA to 0.1 μM F-neo (42a); em 535 nm, ex 485 nm; ten wells averaged
Procedure: as §1, §2

[6] = test system: human ribosomal A-site (SEQ ID NO. 2); assay: as above; format: binding; settings: 0.1 μM RNA to 0.1 μM F-neo (42a); em 535 nm, ex 485 nm; ten wells averaged
Procedure: as §1, §2

NCC1O[C@H](OC2C(O)C(OC3C(O)[C@H](N)CC(N)[C@H]3O[C@H]3OC(CN)[C@@H](O)C(O)C3N)O[C@@H]2CSCCNC(=O)CCSCC(=O)Nc2ccc(-c3c4ccc(=O)cc-4oc4cc(O)ccc34)c(C(=O)O)c2)C(N)C(O)[C@@H]1O (stereo partly shown) [F-neo (42a), Neomycin-Fluorescein Conjugate]
binding to poly(dA).2poly(dT) ([1]; 100 mM Na^+, ambient temperature (˜22° C.), triplex not formed): absence of F-neo (42a) binding
bound drug ([1]; under these salt conditions (100-200 mM Na^+)): 10 to 20 nM
electrostatic potential of the microenvironment for the fluorescein moiety in the complex ([2]; calculated from Δpka (Eq. 3)): −50.9 mV
Δpka ([2]; complex versus free probe): 0.86
apparent pKa of F-neo/A-site oligonucleotide complex ([2]; pH-dependent absorbance spectra): 7.7
upward shift of the pKa upon binding of A-site ([2]; titration curve of A490): approximately one
fluorescence of F-neo with RNA [3]: 11987 (±445)
fluorescence of F-neo with RNA [4]: 7963 (±221)
fluorescence of F-neo with RNA [5]: 8515 (±230)
fluorescence of F-neo with RNA [6]: 9503 (±208)
